pIC50: −log10 of the molar value. Like-named read-outs stand apart in the source and are kept apart here.
Tests used:
[1] = biological target: Recombinant human MALT1/MLT protein (Homo sapiens (Human), UniProt Q9UDY8); assay: Inhibitory effect on MALT1 enzyme activity (Ac-LRSR-AMC substrate, fluorescence 460 nm); format: biochemical; conditions: 10 nM FL MALT1, Ac-LRSR-AMC substrate, 50 min pre-incubation, 4 h reaction
Method: Ac-LRSR-AMC was used as the substrate to test the IC50 of the inhibitory activity of compounds on MALT1 enzyme activity at their Km concentration.
Ac-LRSR-AMC was used as the substrate which was digested by MALT1 to produce products, which produced fluorescence that could be detected at 460 nm. The highest concentration of the compound detected was 1000 nM, 3-fold dilution, a total of 11 concentrations (1000 nM-0.017 nM). The reaction system is 10 nM FL MALT1 protein, […] Ac-LRSR-AMC, 50 mM Tris pH 7.5, 0.6M Citrate, 1 mM DTT, 1 mM EDTA, 0.05% BSA and 1.5% DMSO. The compound and the enzyme were pre-incubated at room temperature for 50 min. The substrate was then added and the reaction was carried out for 4 h.
The original data (460 nm reading) was calculated according to the following formula to obtain the inhibition rate.
(§1) Log(inhibitor) vs. response—Variable slope (four parameters) in GraphPad Prism 6 was used to perform fitting equation analysis on compound concentration and corresponding inhibition rate, the curve was fit and compound IC50 value was obtained.
(§2) The fitting calculation equation is Y=Bottom+(Top−Bottom)/(1+10^((Log IC50−X)*HillSlope))

OCI-Ly3 cells = assay: Inhibition of proliferation of OCI-Ly3 cells (CellTiter-Glo); format: cell-based, human; conditions: 96 h incubation, read-out: Inhibition test of proliferation of OCI-Ly3 cells IC50
Method: The compound's inhibitory effect on the proliferation of TMD8 and OCI-Ly3 cells was evaluated through cell proliferation inhibition experiments.
The compound's inhibitory effect on the proliferation of TMD8 and OCI-Ly3 cells was detected by the CellTiter-Glo method. The highest concentration of the compound detected was 1000 nM, 3-fold dilution, a total of 9 concentrations (1000 nM-0.15 nM). After the cells were plated at an appropriate density, compounds were added the next day and incubated for 96 h before detection using the CellTiter-Glo Luminescent detection kit.
as §1, §2

[2] = Pharmacokinetics of oral administration in Balb/C mice; format: in vivo; conditions: male, mouse, po, 30 mg/kg, P.O., plasma; for AUC(0-t): read-out: AUC 0-t; for Cmax: read-out: Cmax; for Tmax: read-out: Tmax; for MRT: read-out: MRT
Method: Balb/C mice were used as test animals to study the pharmacokinetic behavior of the compound in the plasma of mice after oral administration at a dose of 30 mg/kg.
3 Balb/C mice (3/example), male, from Shanghai Jiesijie Experimental Animal Co., Ltd., animal production license number (SCXK (Shanghai) 2013-0006 N0.311620400001794).
3 Balb/C mice, male; p.o. respectively at a dose of 30 mg/kg and an administration volume of 10 mL/kg after the mice were fasted overnight.
Before and after administration of mice, 0.1 mL of blood was collected from the orbit at 0, 0.5, 1, 2, 4, 6, 8 and 24 h, and placed in EDTA-K2 test tubes, which was centrifuged at 6000 rpm at 4° C. for 6 min to separate plasma which was stored at −80° C.
• 1) 160 μL of acetonitrile was added to 40 μL of plasma sample for precipitation, and same was mixed and centrifuged at 3500×g for 5 to 20 min. • 2) 100 μL of the treated supernatant solution was taken and subjected to LC/MS/MS to analyze the concentrations of the test compounds.
• Liquid phase conditions: Shimadzu LC-20AD pump • Mass spectrometry conditions: AB Sciex API 4000 mass spectrometer • Chromatographic column: Phenomenex Gemiu 5 um C18 50×4.6 mm • Mobile phase: liquid A is 0.1% aqueous formic acid solution, liquid B is acetonitrile • flow rate: 0.8 mL/min • Elution time: 0-4.0 min, the eluent is as follows:
The main pharmacokinetic parameters were calculated using WinNonlin 8.2.

[3] = biological target: MALT1 protease activity in TMD8 cells (substrate BCL-10) (Homo sapiens (Human), UniProt Q9UDY8); assay: Intracellular MALT1 protease activity detection (BCL-10 ELISA in TMD8 cells); format: cell-based; conditions: undigested BCL-10 by ELISA, 30 min compound then 2 h stimulation cocktail, read-out: Bcl10 TMD8 IC50
Method: By detecting the digestion level of the substrate BCL-10 by MALT1 in TMD8 cells, the inhibitory effect of the compound on MALT1 protease activity in the cellular environment was tested.
The ELISA sandwich method was used to detect the content of undigested BCL-10 protein in cells and determine the inhibitory effect of compounds on intracellular MALT1 protease activity. The highest concentration of the compound detected was 10000 nM, 3-fold dilution, a total of 9 concentrations (10000 nM-1.5 nM). Cells were plated at an appropriate density. Compounds of corresponding concentrations were first added for action for 30 min, and then eBioscience cell stimulation cocktail was added to stimulate the cells for 2 h. Cell lysate was then collected. The cell lysate was added to the assay plate previously coated with recombinant BCL-10 antibody (Abcam, #Ab33905) and incubated at 4° C. overnight. The next day, BCL-10 detection antibody (Santacruz, #Sc-5273HRP) was added and incubated for 2 h, TMB substrate was used for color development for about 30 min, then the color development was terminated, and a microplate reader was used for detection.
2) Curve fitting: Log(inhibitor) vs. response—Variable slope (four parameters) in GraphPad Prism 6 was used to perform fitting equation analysis on compound concentration and corresponding inhibition rate, the curve was fit and compound IC50 value was obtained.
as §2

Sequence of Recombinant human MALT1/MLT protein (Q9UDY8 whole entry): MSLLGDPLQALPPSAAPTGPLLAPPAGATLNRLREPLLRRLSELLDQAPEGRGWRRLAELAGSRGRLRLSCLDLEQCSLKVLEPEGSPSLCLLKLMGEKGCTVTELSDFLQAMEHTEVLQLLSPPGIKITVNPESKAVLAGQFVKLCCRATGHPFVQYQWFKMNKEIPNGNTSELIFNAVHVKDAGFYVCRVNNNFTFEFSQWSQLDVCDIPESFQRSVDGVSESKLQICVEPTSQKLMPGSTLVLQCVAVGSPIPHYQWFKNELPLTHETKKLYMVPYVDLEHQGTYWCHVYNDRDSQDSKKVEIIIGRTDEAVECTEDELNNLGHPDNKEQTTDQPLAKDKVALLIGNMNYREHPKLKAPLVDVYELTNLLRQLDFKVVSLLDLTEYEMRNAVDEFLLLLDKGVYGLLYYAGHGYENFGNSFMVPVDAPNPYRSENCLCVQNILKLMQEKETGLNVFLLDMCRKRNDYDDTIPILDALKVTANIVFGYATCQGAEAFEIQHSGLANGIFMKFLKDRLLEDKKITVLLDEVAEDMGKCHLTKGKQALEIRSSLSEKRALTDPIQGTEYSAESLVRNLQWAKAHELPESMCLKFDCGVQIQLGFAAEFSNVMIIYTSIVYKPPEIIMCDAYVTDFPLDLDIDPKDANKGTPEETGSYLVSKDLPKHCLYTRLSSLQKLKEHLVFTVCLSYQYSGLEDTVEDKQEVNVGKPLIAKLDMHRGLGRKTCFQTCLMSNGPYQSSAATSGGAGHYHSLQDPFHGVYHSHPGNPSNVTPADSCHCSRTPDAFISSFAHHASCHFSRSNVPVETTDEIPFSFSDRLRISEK
Sequence of MALT1 protease activity in TMD8 cells (substrate BCL-10) (Q9UDY8 whole entry): as above

| SMILES | pIC50 [1] | pIC50 (OCI-Ly3 cells; Homo sapiens) | further results |
| --- | --- | --- | --- |
| O=C(Nc1ccc(-n2nccn2)c(C(F)(F)F)c1)c1cnn(-c2cnc3c4c(cccc24)C(=O)N3)c1C1CC1 [Example 83, N-(4-(2H-1,2,3-triazol-2-yl)-3-(trifluoromethyl)phenyl)-5-cyclopropyl-1-(2-oxo-1,2-dihydropyrrolo[4,3,2-ij]isoquinolin-6-yl)-1H-pyrazole-4-carboxamide] | 7.30 |  |  |
| N#Cc1ccnn1-c1ncc(NC(=O)c2cnn(-c3ccc4c5c(cccc35)C(=O)N4)c2C(F)(F)F)cc1C(F)(F)F [Example 32] |  | 6.58 |  |
| O=C(Nc1cnc(-n2cccn2)c(Cl)c1)c1cnn(-c2ccc3c4c(cccc24)C(=O)N3)c1C(F)(F)F [Example 44] | 7.10 |  | pIC50 (OCI-Ly3 cells): 6.83 |
| O=C(Nc1cnc(-c2ncco2)c(C(F)(F)F)c1)c1cnn(-c2ccc3c4c(cccc24)C(=O)N3)c1C(F)(F)F [Example 34, N-(6-(oxazol-2-yl)-5-(trifluoromethyl)pyridin-3-yl)-1-(2-carbonyl-1,2-dihydrobenzo[cd]indol-6-yl)-5-(trifluoromethyl)-1H-pyrazole-4-carboxamide] |  | 6.67 |  |
| Cc1ncnn1-c1ncc(NC(=O)c2cnn(-c3ccc4c5c(cccc35)C(=O)N4)c2C(F)(F)F)cc1Cl [Example 47] | 6.91 |  |  |
| O=C(Nc1ccc(-n2nccn2)c(C(F)(F)F)c1)c1cnn(-c2ccc3c4c(cccc24)C(=O)N3)c1C(F)(F)F [Example 50, N-(4-(2H-1,2,3-triazol-2-yl)-3-(trifluoromethyl)phenyl)-1-(2-oxo-1,2-dihydrobenzo[cd]indol-6-yl)-5-(trifluoromethyl)-1H-pyrazole-4-carboxamide] | 7.41 | 6.66 | AUC(0-t) [2]: 54400 ng·h/mL; Cmax [2]: 3020 ng/mL; Tmax [2]: 8 h |
| Cn1ccc(-c2ncc(NC(=O)c3cnn(-c4ccc5c6c(cccc46)C(=O)N5)c3C(F)(F)F)cc2C(F)(F)F)n1 [Example 37, N-(6-(1-methyl-1H-pyrazol-3-yl)-5-(trifluoromethyl)pyridin-3-yl)-1-(2-oxo-1,2-dihydrobenzo[cd]indol-6-yl)-5-(trifluoromethyl)-1H-pyrazole-4-carboxamide] | 7.32 |  |  |
| O=C(Nc1cnc(-n2cccn2)c(C(F)(F)F)c1)c1cnn(-c2ccc3c4c(cccc24)C(=O)N3)c1C(F)(F)F [Example 31, N-(6-(1H-pyrazol-1-yl)-5-(trifluoromethyl)pyridin-3-yl)-1-(2-carbonyl-1,2-dihydrobenzo[cd]indol-6-yl)-5-(trifluoromethyl)-1H-pyrazole-4-carboxamide] |  | 6.69 | AUC(0-inf) [2]: 197000 ng·h/mL; half-life [2]: 1.9 h; AUC(0-t) [2]: 197000 ng·h/mL; Cmax [2]: 25900 ng/mL; MRT [2]: 4.7 h; Tmax [2]: 2 h; pIC50 [3]: 6.99 |
| O=C(Nc1ccc(-n2cccn2)c(C(F)(F)F)c1)c1cnn(-c2ccc3c4c(cccc24)C(=O)N3)c1C(F)(F)F [Example 51, N-(4-(1H-pyrazol-1-yl)-3-(trifluoromethyl)phenyl)-1-(2-carbonyl-1,2-dihydrobenzo[cd]indol-6-yl)-5-(trifluoromethyl)-1H-pyrazole-4-carboxamide] |  | 7.08 |  |
| O=C(Nc1cnc(-n2nccn2)c(Cl)c1)c1cnn(-c2ccc3c4c(cccc24)C(=O)N3)c1C(F)F [Example 67, N-(6-(2H-1,2,3-triazol-2-yl)-5-chloropyridin-3-yl)-5-difluoromethyl-1-(2-oxo-1,2-dihydrobenzo[cd]indol-6-yl)-1H-pyrazole-4-carboxamide] | 7.32 |  |  |
| O=C(Nc1ccc(-n2nccn2)c(Cl)c1)c1cnn(-c2cnc3c4c(cccc24)C(=O)N3)c1C(F)(F)F [Example 75, N-(3-chloro-4-(2H-1,2,3-triazol-2-yl)phenyl)-1-(2-carbonyl-1,2-dihydropyrrolo[4,3,2-ij]isoquinolin-6-yl)-5-(trifluoromethyl)-1H-pyrazole-4-carboxamide] |  | 6.67 | AUC(0-inf) [2]: 12200 ng·h/mL; half-life [2]: 3 h; AUC(0-t) [2]: 12200 ng·h/mL; Cmax [2]: 1290 ng/mL; MRT [2]: 5.5 h; Tmax [2]: 2 h; pIC50 [3]: 7.08 |
| O=C(Nc1ccc(-n2cccn2)c(C(F)(F)F)c1)c1cnn(-c2cnc3c4c(cccc24)C(=O)N3)c1C(F)(F)F [Example 74, N-(4-(1H-pyrazol-1-yl)-3-(trifluoromethyl)phenyl)-1-(2-carbonyl-1,2-dihydropyrrolo[4,3,2-ij]isoquinolin-6-yl)-5-(trifluoromethyl)-1H-pyrazole-4-carboxamide] |  | 6.63 |  |
| Cn1cnc(-c2ncc(NC(=O)c3cnn(-c4ccc5c6c(cccc46)C(=O)N5)c3C(F)(F)F)cc2Cl)n1 [Example 45] | 6.91 |  |  |
| O=C(Nc1cnc(-n2nccn2)c(C(F)(F)F)c1)c1cnn(-c2cnc3c4c(cccc24)C(=O)N3)c1C1CC1 [Example 78, N-(6-(2H-1,2,3-triazol-2-yl)-5-(trifluoromethyl)pyridin-3-yl)-5-cyclopropyl-1-(2-oxo-1,2-dihydropyrrolo[4,3,2-ij]isoquinolin-6-yl)-1H-pyrazole-4-carboxamide] |  |  | pIC50 [3]: 7.17 |
| O=C(Nc1cnc(-n2nccn2)c(C(F)(F)F)c1)c1cnn(-c2ccc3c4c(cccc24)C(=O)N3)c1C(F)F [Example 66, N-(6-(2H-1,2,3-triazol-2-yl)-5-trifluoromethylpyridin-3-yl)-5-difluoromethyl-1-(2-oxo-1,2-dihydrobenzo[cd]indol-6-yl)-1H-pyrazole-4-carboxamide] | 6.71 | 7.06 |  |
| N#Cc1cc(-n2ncc(C(=O)Nc3ccnc(C(F)(F)F)c3)c2C(F)(F)F)c2cccc3c2c1NC3=O [Example 92, 1-(8-cyano-2-carbonyl-1,2-dihydrobenzo[cd]indol-6-yl)-5-(trifluoromethyl)-N-(2-(trifluoromethyl)pyridin-4-yl)-1H-pyrazole-4-carboxamide] |  | 6.89 |  |
| O=C(Nc1ccnc(C(F)(F)F)c1)c1cnn(-c2ccc3c4c(cccc24)OC3)c1C(F)(F)F [Example 15, 1-(2H-naphthalene [1,8-bc]furan-5-yl)-5-trifluoromethyl-N-(2-trifluoromethyl-pyridin-4-yl)-1H-pyrazole-4-carboxamide] | 6.77 |  |  |
| Cc1nc(-c2ncc(NC(=O)c3cnn(-c4ccc5c6c(cccc46)C(=O)N5)c3C(F)(F)F)cc2C(F)(F)F)oc1C [Example 35, N-(6-(4,5-dimethyloxazol-2-yl)-5-(trifluoromethyl)pyridin-3-yl)-1-(2-carbonyl-1,2-dihydrobenzo[cd]indol-6-yl)-5-(trifluoromethyl)-1H-pyrazole-4-carboxamide] |  | 6.58 |  |

Source: patent US20250059196A1 (SHANGHAI HANSOH BIOMEDICAL CO., LTD., priority 2021, published 2025)
